We go through 1 compound from patent publication US20190125715A1, “CDDO-Me AS A THERAPY FOR LUPUS” (priority 2014, published 2019).

In data set [1] the test system is B6.Sle1.Sle3 mice. Description: Preventive experiment in B6.Sle1.Sle3 mice: spleen weight, splenic cellularity and lymphocyte subsets by flow cytometry. Also noted: Splenic B cells: B220+, AA4.1+ (mature) / Splenic B cells: Follicular B cells / Splenic B cells: Marginal zone B cells / Splenic B cells: B1a cells / Splenic B cells: B220+, AA4.1+ (immature) / Splenic B cells: T1 immature / Splenic B cells: T2 immature / Splenic B cells: T3 immature / Splenic T cells: CD4 T cells / Splenic T cells: CD8 T cells: unit not given here. It is filed as in vivo, mouse. The method, then: Flow cytometric analysis and antibodies: Splenocytes were depleted of red blood cells using a lysis buffer (containing 0.15M NH4Cl, 10 mM KHCO3, and 0.1 mM Na2EDTA, pH 7.2), and single-cell suspensions were prepared for flow cytometric analysis. Flow cytometric analysis was performed as described previously (17).
In vivo experiments: In the first preventive experiment, CDDO-Me was diluted in sesame oil. Two-month-old B6.Sle1.Sle3 mice (n=20) received CDDO-Me at a final dose of 3 mg/kg or vehicle alone (i.e., placebo), by oral gavage 3 times per week for a period of 2 months. In a confirmatory preventive study, 2-month-old MRL/lpr mice (n=8 per group) were orally administered CDDO-Me (3 mg/kg), sesame oil, water, or dexamethasone (1 mg/kg) 3 times a week for 2 months. Serum and 24-hour urine samples were obtained on days 0, 14, and 60. All serum samples were subjected to ELISA for autoantibodies, and urine samples were assayed for total protein as previously described (17,18). On day 60, when mice were killed, the cellular composition of the spleen and lymph nodes was determined by flow cytometry, and the kidneys were examined for pathology, as described below. In addition, the expression of various signaling molecules in the spleens and kidneys of the treated mice was assayed by Western blotting, as described above. In the treatment experiment, 7-month-old NZM2410 mice with proteinuria (n=4-7 per group) were treated with CDDO-Me (3 mg/kg) or placebo by oral gavage 5 times per week for a period of 2 months. Proteinuria, autoantibody production, spleen weight, and survival rates were assessed.
To address this, 2-month-old female B6.Sle1.Sle3 mice were treated for 60 days with CDDO-Me or placebo, and then spleen size and cellularity were assessed in both groups.

For data set [2] the following is noted: mouse, in vivo. An excerpt: Since this was a relatively long-term study, and since CDDO-Me cripples multiple signaling axes, one concern can be potential side effects. After 60 days of drug administration (either in the preventive or treatment experiment), body weights of mice from both the CDDO-Me group and the placebo group were similar. […] In addition, liver function was monitored by assaying aspartate aminotransferase (AST); however, there were no significant changes in the CDDO-Me-treated group (AST activity 75.7±6.5 units/liter) compared to the placebo group (74.0±5.8 units/liter).

The mark [3] stands for this setting: absolute cell number in spleen, 4-month-old mice, 60 days treatment, mean ± SEM, n=10.

Turning to `COC(=O)[C@]12CCC(C)(C)C[C@H]1[C@H]1C(=O)C=C3[C@@]4(C)C=C(C#N)C(=O)C(C)(C)[C@@H]4CC[C@@]3(C)[C@]1(C)CC2` [CDDO-Me, methyl-2-cyano-3,12-dioxooleana-1,9-dien-28-oate], the “Total spleen cell count” value in data set [1] (4-month-old B6.Sle1.Sle3 mice after 60 days CDDO-Me 3 mg/kg oral gavage 3 times per week, mean ± SEM, n=10) is on record as 89.1 ± 2.3 10^6. Also, the “percentage of CD8+ T cells among splenic T cells” value in data set [1] (60 days treatment, mean±SEM, placebo 6.8±1.1%, P=0.023) was determined as 9.73±0.4%. Further, the “percentage of CD4+ T cells among splenic T cells” value in data set [1] (60 days treatment, mean±SEM, placebo 15.1±1.2%, P=0.021) was 12.1±0.35%. The “B cell activation, surface CD86 expression” value in data set [1] (60 days treatment, placebo 8.72±0.45, P<0.002) is recorded as 6.48±0.42 mean fluorescence intensity units. Moreover, in data set [1] (60 days treatment, placebo 39.0±2.0 million, P<0.0001), the “absolute number of total splenic CD4+ T cells” value was found to be 18.7±3.8 million. Also, in data set [1] (setting [3]), the “Splenic B cells: B1a cells” value is reported as 4.0 ± 0.3; the “Splenic B cells: B220+, AA4.1+ (immature)” value came to 10.4 ± 1.1; the “Splenic B cells: B220+, AA4.1+ (mature)” value was determined as 45.3 ± 3.2; the “Splenic B cells: Follicular B cells” value is recorded as 30.9 ± 1.6. For the same compound, in data set [1] (setting [3]), the “Splenic B cells: Marginal zone B cells” value is reported as 4.0 ± 0.2, the “Splenic B cells: T1 immature” value stood at 1.0 ± 0.1, the “Splenic B cells: T2 immature” value was 3.1 ± 0.2 and the “Splenic B cells: T3 immature” value stood at 4.0 ± 0.2. For the same compound, in data set [1] (setting [3]), the “Splenic T cells: CD4 T cells” value came out at 18.7 ± 3.8, the “Splenic T cells: CD8 T cells” value stood at 8.6 ± 2.4, the “Splenic T cells: CD69+/CD4 T cells” value worked out at 5.1 ± 0.6 and the “Splenic T cells: CD69+/CD8 T cells” value was 0.6 ± 0.1. Also, in data set [1] (female B6.Sle1.Sle3 mice treated for 60 days), the “decrease of overall spleen weights compared to the placebo-treated group” value is roughly 50%. For the same compound, in data set [2], the “AST activity (liver function)” value was found to be 75.7±6.5 units/liter; the “all blood cell counts (WBC, RBC, hemoglobin, hematocrit, MCV, MCH, MCHC, RDW, MPV, neutrophils, lymphocytes, eosinophils) versus placebo group” value is recorded as “remained similar”; the “platelet counts versus placebo group” value is listed as “comparable”.
